ChEMBL document CHEMBL5113470, “Regioselective pyrrolizidine bis-spirooxindoles as efficient anti-amyloidogenic agents” (2022)
Active and inactive are the calls of the source. The rule behind the calls is not given here.

Assays:
Gallus gallus [1] = species on record: Gallus gallus; experiment: Inhibition of Hen egg white lysozyme fibril formation by Thioflavin T spectroscopic assay relative to control; parameters: concentration or dose not given beside the values; conditions: dose or concentration not given here
Gallus gallus [2] = species on record: Gallus gallus; experiment: Inhibition of Hen egg white lysozyme fibril formation assessed as shorter fibrils after day 7 by TEM analysis
Gallus gallus [3] = species on record: Gallus gallus; experiment: Inhibition of Hen egg white lysozyme fibril formation assessed as decrease in conformational transition from alpha-helix to beta-sheet after 7 days by Raman spectroscopic assay; conditions: time 7.0 day
[4] = Inhibition of HEWL fibril-induced toxicity in human HEK cells assessed as cell viability by MTT assay ( Rvb = 55.2 +/- 7.2%); format: functional
Gallus gallus [5] = species on record: Gallus gallus; experiment: Inhibition of Hen egg white lysozyme fibril formation by Circular dichroism

SMILES	inhibition (Gallus gallus [1])	inhibition (Gallus gallus [2])	inhibition (Gallus gallus [3])	Activity [4]	inhibition (Gallus gallus [5])
CC[C@H]1CN2CC[C@@]3(C(=O)Nc4ccccc43)[C@@H]2C[C@@H]1/C(=C\OC)C(=O)OC	30.4%	–	–	–	–
COc1cccc(C(=O)[C@@H]2C3CCCN3[C@@]3(C(=O)Nc4ccccc43)[C@@]23C(=O)Nc2ccccc23)c1 (some centres undefined)	20.3%	Active	Active	64.8%	Active
CC[C@H]1CN2CC[C@]3(C(=O)Nc4ccccc43)[C@@H]2C[C@@H]1/C(=C\OC)C(=O)OC [RHYNCHOPHYLLINE]	37.6%	–	–	77%	–
COc1ccc(C(=O)[C@@H]2C3CCCN3[C@@]3(C(=O)Nc4ccccc43)[C@@]23C(=O)Nc2ccccc23)cc1 (some centres undefined)	45.3%	Active	Active	47.7%	Active
O=C(c1ccccc1)[C@@H]1C2CCCN2[C@@]2(C(=O)Nc3ccccc32)[C@@]12C(=O)Nc1ccccc12 (some centres undefined)	22.7%	Active	Active	59.6%	Active
O=C(O[C@@H]1Cc2c(O)cc(O)cc2O[C@@H]1c1cc(O)c(O)c(O)c1)c1cc(O)c(O)c(O)c1	24.4%	–	–	–	–
